Patent publication US12037344B2, “NLRP3 modulators” (INNATE TUMOR IMMUNITY, INC., priority 2018, dated 2024)
Read-outs that look alike come from different tables or passages of the source.

Assays:
[1] = molecular target: T1, TLR7 (Homo sapiens, UniProt Q9NYK1); assay: In vitro human TLR7 binding reporter assay (HEK-Blue, NF-kB/AP1-inducible SEAP); assay type: cell-based; details: read-out: TLR7 Agonist EC50
T1 construct: human HEK-Blue cells co-expressing a TLR7 or TLR8 gene
T1 sequence (Q9NYK1 27-1049): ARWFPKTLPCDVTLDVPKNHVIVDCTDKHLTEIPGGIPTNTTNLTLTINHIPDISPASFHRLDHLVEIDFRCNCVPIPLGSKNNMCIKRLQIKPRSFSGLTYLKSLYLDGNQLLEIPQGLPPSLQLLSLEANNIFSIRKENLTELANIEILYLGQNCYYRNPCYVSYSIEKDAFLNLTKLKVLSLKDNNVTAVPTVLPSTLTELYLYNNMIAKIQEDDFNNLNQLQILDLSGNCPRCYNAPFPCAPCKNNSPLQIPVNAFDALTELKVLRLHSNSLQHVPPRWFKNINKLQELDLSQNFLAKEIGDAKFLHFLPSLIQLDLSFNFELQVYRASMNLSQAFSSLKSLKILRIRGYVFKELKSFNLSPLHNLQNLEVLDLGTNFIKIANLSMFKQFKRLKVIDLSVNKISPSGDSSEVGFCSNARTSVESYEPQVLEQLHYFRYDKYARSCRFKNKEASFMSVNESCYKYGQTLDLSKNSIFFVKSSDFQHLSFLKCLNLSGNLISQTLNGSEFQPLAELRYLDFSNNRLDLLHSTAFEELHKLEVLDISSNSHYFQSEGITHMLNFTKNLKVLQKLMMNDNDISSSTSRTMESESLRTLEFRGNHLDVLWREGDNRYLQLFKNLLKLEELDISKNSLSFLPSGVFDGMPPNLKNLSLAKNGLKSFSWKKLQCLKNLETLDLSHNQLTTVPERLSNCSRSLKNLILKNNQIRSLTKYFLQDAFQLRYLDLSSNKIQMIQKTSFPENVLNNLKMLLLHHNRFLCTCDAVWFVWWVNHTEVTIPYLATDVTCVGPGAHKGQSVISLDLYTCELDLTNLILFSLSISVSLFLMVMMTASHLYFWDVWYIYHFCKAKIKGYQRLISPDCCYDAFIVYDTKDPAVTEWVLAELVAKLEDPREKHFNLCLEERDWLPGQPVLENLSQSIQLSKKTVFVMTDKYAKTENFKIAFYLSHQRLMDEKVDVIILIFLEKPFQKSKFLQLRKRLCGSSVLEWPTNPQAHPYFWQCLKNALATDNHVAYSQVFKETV
Outline: (§1)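 Cells are seeded and grown for 24 h. Compounds or DMSO are then added and incubated 18 h at 37 °C. Quanti-Blue is added, and SEAP is read after thirty minutes. EC50 values are normalized, with RLU from 50 μM reference standard setting 100% Ymax.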

[2] = test system: THP-1 cells; assay: Measurement of IL-1β production, hTRF protocol (second alternative procedure), THP-1 cells; assay type: cell-based, human; details: read-out: NLRP3 hILIB EC50
Outline: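 Compounds, dilution series starting at a final 10 μM, were incubated 2 hours at 37° C with PMA-differentiated THP-1 cells (50 ng/ml overnight; 50,000 cells/well, 2% FBS RPMI). Released IL-1β quantified in supernatant by hTRF kit with 1:40 antibody dilution, 4° C overnight, 665/615 nm ratio.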

[3] = molecular target: T2, TLR8 (Homo sapiens, UniProt Q9NR97); assay: In vitro human TLR8 binding reporter assay (HEK-Blue, NF-kB/AP1-inducible SEAP); assay type: cell-based; details: read-out: TLR8 Agonist EC50
T2 construct: human HEK-Blue cells co-expressing a TLR7 or TLR8 gene
T2 sequence (Q9NR97 27-1041): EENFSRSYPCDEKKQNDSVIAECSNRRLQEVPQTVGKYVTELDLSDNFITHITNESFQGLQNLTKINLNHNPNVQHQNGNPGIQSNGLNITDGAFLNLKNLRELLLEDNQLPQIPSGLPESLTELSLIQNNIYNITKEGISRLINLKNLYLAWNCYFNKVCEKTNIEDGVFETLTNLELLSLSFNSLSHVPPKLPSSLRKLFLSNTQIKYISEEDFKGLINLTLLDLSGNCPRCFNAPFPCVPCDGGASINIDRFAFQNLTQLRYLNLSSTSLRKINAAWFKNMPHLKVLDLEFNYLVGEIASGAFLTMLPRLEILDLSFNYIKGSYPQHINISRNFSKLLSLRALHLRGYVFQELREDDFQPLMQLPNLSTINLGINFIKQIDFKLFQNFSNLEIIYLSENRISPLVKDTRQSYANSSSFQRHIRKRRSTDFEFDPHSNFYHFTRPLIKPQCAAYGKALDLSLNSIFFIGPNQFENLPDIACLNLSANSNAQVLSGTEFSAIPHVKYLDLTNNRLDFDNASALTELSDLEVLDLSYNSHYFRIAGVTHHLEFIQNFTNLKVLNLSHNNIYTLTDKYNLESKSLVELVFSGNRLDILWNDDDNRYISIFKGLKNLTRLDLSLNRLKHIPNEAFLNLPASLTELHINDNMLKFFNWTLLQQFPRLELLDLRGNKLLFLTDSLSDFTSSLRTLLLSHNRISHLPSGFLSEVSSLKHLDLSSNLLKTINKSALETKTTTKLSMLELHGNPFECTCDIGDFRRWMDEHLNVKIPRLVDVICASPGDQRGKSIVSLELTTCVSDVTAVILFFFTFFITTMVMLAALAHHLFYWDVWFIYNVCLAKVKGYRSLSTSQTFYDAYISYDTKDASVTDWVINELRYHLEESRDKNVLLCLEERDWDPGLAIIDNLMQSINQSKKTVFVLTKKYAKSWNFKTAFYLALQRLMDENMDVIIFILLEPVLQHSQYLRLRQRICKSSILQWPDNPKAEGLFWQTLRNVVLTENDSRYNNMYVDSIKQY
Outline: as §1

[4] = Homo sapiens, THP-1, IL-1β production, human cells
[5] = Homo sapiens, THP-1, IL-1β production, human

Row | SMILES | EC50 ([1]; activity range) [µM] | EC50 [2, 4] [µM] | EC50 ([3]; activity range) [µM] | EC50 ([1]; activity range class) [µM] | EC50 [2, 5] [µM] | EC50 ([3]; activity range class) [µM] | EC50 ([2]; IL-1β production, human) [µM]
1 | Nc1nc2cc(-c3cc[nH]n3)c(Cl)cc2c2cn(CCNC(=O)c3ccc(F)cn3)nc12 [Example 195, N-(2-(4-amino-8-chloro-7-(1H-pyrazol-3-yl)-2H-pyrazolo[3,4-c]quinolin-2-yl)ethyl)-5-fluoropicolinamide] |  |  |  | > 100 | 2.15 | 20 to 100 | 
2 | CC1(O)CCCC1n1cc2c(N)nc3cc(-c4cc[nH]n4)ccc3c2n1 (stereo not drawn) [Example 343] |  |  |  | > 100 | 0.61 | > 100 | 
3 | CCCn1ncc2c(N)nc3cc(-c4cc[nH]n4)ccc3c21 [Example 221] |  |  |  | > 100 | 0.21 | > 100 | 
4 | CCN1CCOCC1Cn1cc2c(N)nc3cc(-c4ccn[nH]4)ccc3c2n1 (stereo not drawn) [Example 263] |  |  |  | > 100 | 1.66 | > 100 | 
5 | Nc1nc2cc(-c3cc[nH]n3)ccc2c2cn(CCNC(=O)c3cccc(F)n3)nc12 [Example 55] |  |  |  | 20 to 100 | 0.39 | 20 to 100 | 
6 | Nc1nc2cc(-c3cc[nH]n3)ccc2c2cn(Cc3ccncc3)nc12 [Example 165] |  |  |  | > 100 | 0.14 | 20 to 100 | 
7 | Nc1nc2cc(-c3cc[nH]n3)ccc2c2cn(CCNC(=O)c3cnccn3)nc12 [Example 83] |  |  |  | > 100 | 0.36 | > 100 | 
8 | COc1ccc(CNCCn2cc3c(n2)c(N)nc2cc(-c4cc[nH]n4)ccc23)cc1 [Example 111] |  |  |  | 20 to 100 | 2.09 | > 100 | 
9 | COC(C)Cn1cc2c(N)nc3cc(-c4cc[nH]n4)ccc3c2n1 (single isomer, unassigned) [Example 347] |  |  |  | > 100 |  | > 100 | 0.3
10 | Nc1nc2cc(-c3ccn[nH]3)ccc2c2cn(CCF)nc12 [Example 193] |  |  |  | 20 to 100 | 0.24 | 20 to 100 | 
11 | Nc1nc2cc(-c3cc[nH]n3)ccc2c2cn(Cc3cscn3)nc12 [Example 168] |  |  |  | > 100 | 0.2 | 20 to 100 | 
12 | Nc1nc2cc(-n3cccn3)ccc2c2cn(CCN3CCCC3=O)nc12 [Example 11] |  |  |  | 20 to 100 | 2.09 | > 100 | 
13 | Nc1nc2cc(-n3cccn3)ccc2c2c1cnn2CCO [Example 250, 2-(4-amino-7-(1H-pyrazol-1-yl)-1H-pyrazolo[4,3-c]quinolin-1-yl)ethan-1-ol] |  |  |  | > 100 | 1.95 | > 100 | 
14 | Nc1nc2cc(-c3cc[nH]n3)ccc2c2nn(C3CCCC3O)cc12 (single isomer, unassigned) [Example 315] |  |  |  | > 100 |  | > 100 | 0.89
15 | Nc1nc2cc(-c3cc[nH]n3)ccc2c2cn(CCN3CCCC3=O)nc12 [Example 122, 1-{2-[4-amino-7-(1H-pyrazol-3-yl)-2H-pyrazolo[3,4-c]quinolin-2-yl]ethyl}pyrrolidin-2-one] |  |  |  | > 100 | 5.99 | > 100 | 
16 | Nc1nc2cc(-c3ccn[nH]3)ccc2c2nn(CCN3CCC3)cc12 [Example 271] |  |  |  | > 100 | 1.07 | > 100 | 
17 | CC(=O)NC(C)Cn1cc2c(N)nc3cc(-c4ccn[nH]4)ccc3c2n1 (stereo not drawn) [Example 254] |  |  |  | > 100 | 20.3 | > 100 | 
18 | Nc1nc2cc(-c3cc[nH]n3)ccc2c2cn(CCNC(=O)c3cccnn3)nc12 [Example 73] |  |  |  | > 100 | 2.96 | > 100 | 
19 | Nc1nc2cc(-c3cccs3)ccc2c2cn(CCNC(=O)c3ccccn3)nc12 [Example 131] |  |  |  | > 100 | 0.61 | > 100 | 
20 | Nc1nc2cc(-c3cc[nH]n3)ccc2c2nn(Cc3cn[nH]c3)cc12 [Example 358] |  |  |  | > 100 | 0.18 | > 100 | 

More lines, now with the values ahead:

Row | EC50 ([1]; activity range) [µM] | EC50 [2, 4] [µM] | EC50 ([3]; activity range) [µM] | EC50 ([1]; activity range class) [µM] | EC50 [2, 5] [µM] | EC50 ([3]; activity range class) [µM] | EC50 ([2]; IL-1β production, human) [µM] | SMILES
21 | > 100 | 0.61 | > 100 |  |  |  |  | N#CCC1(Cn2cc3c(N)nc4cc(-c5cc[nH]n5)ccc4c3n2)CC1 [Example 466]
22 | > 100 | 6.59 | > 100 |  |  |  |  | CCN(CC)CCNC(=O)C(C)n1cc2c(N)nc3cc(-c4ccn[nH]4)ccc3c2n1 (stereo not drawn) [Example 573]
23 | > 100 | 0.35 | > 100 |  |  |  |  | Nc1nc2cc(-c3cc[nH]n3)ccc2c2[nH]c(CN[C@H]3CC[C@@H](CO)C3)cc12 [Example 478]
24 | > 100 | 2.21 | > 100 |  |  |  |  | CCS(=O)(=O)NCCc1cc2c(N)nc3cc(-c4cc[nH]n4)ccc3c2[nH]1 [Example 482]
25 |  |  |  | > 100 | 0.07 | > 100 |  | Nc1nc2cc(-c3cc[nH]n3)ccc2c2nn(Cc3cscn3)cc12 [Example 362]
26 | > 100 | 2.03 | > 100 |  |  |  |  | CC(C)(C(=O)NC1CCC1)n1cc2c(N)nc3cc(-c4cc[nH]n4)ccc3c2n1 [Example 524]
27 | > 100 | 10.4 | > 100 |  |  |  |  | CC(C)NC(=O)CC(C)n1cc2c(N)nc3cc(-c4cc[nH]n4)ccc3c2n1 (stereo not drawn) [Example 615]
28 | > 100 | 3.27 | > 100 |  |  |  |  | COC1CN(C(=O)Cn2cc3c(n2)c(N)nc2cc(-c4cc[nH]n4)ccc23)C1 [Example 546]
29 | > 100 | 3.99 | > 100 |  |  |  |  | CN(C)C(=O)C1(Cn2cc3c(N)nc4cc(-c5ccn[nH]5)ccc4c3n2)CC1 [Example 600]
30 | > 100 | 1.89 | > 100 |  |  |  |  | Nc1nc2cc(-c3cc[nH]n3)ccc2c2[nH]c(CNCCO)cc12 [Example 494]
31 | > 100 | 4.35 | > 100 |  |  |  |  | COC1CCN(CCn2ncc3c(N)nc4cc(-c5cc[nH]n5)ccc4c32)C1 (stereo not drawn) [Example 434]
32 | > 100 | 0.42 | > 100 |  |  |  |  | N#CCCn1cc2c(N)nc3cc(-n4cccn4)ccc3c2n1 [Example 557]
33 | > 100 | 1.4 | > 100 |  |  |  |  | CN(C)C(=O)CCn1cc2c(N)nc3cc(-c4cc[nH]n4)ccc3c2n1 [Example 506]
34 | > 100 | 0.2 | > 100 |  |  |  |  | N#CCCCCn1cc2c(N)nc3cc(-c4cc[nH]n4)ccc3c2n1 [Example 460]
